In patent US20240246964A1 (Arbutus Biopharma Corporation, priority 2021, published 2024) one finds IC50 and EC50 data, which are given here for 20 compounds.

Assay [1] concerns the target PD-L1 His protein / PD-1 Fc protein (Homo sapiens (Human), UniProt Q9NZQ7). The assay is described as follows: HTRF Assay (PD-1/PD-L1 interaction). Type of assay: binding. Conditions: PD-L1 His 6 nM, PD-1 Fc 6 nM. Background: Time-resolved FRET reads energy transfer from a long-lived donor to a nearby acceptor.
Another assay concerns the target human PD-L1 (Homo sapiens (Human), UniProt Q9NZQ7). Put plainly: T cell activation luciferase reporter cell culture system (T Cell Activation Assay). The settings on record: luciferase reporter assay; PD-L1 aAPC/CHO-K1 cells with PD-1 effector Jurkat T cells. Format: cell-based. Background: Reporter assays use an easily measured gene product as a stand-in for the process of interest.

Where only a bound is given, the exact number is not on record here.

Chain of PD-L1 His protein / PD-1 Fc protein (Q9NZQ7 19-238): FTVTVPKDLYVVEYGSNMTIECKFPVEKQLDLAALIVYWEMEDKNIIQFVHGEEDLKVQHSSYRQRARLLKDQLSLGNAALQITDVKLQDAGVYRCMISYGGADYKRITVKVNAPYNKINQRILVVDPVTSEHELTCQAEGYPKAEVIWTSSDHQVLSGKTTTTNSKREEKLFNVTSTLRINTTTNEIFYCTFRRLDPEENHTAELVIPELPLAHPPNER
Chain of human PD-L1 (Q9NZQ7 19-290): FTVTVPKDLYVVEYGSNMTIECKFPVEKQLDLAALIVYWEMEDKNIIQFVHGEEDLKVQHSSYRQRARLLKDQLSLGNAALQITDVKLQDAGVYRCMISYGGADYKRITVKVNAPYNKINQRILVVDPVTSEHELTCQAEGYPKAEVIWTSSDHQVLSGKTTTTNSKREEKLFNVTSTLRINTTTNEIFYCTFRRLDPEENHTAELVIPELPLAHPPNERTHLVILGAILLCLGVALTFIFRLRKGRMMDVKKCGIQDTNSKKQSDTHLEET

In assay [1], `COc1cc(-c2nccc(-c3ccnc(-c4ccc5c(CNC[C@@H]6CCC(=O)N6)cn(C)c5c4)c3Cl)c2Cl)ccc1CNC[C@@H]1CCC(=O)N1` [Compound 14, (S)-5-(((4-(3,3′-dichloro-2′-(1-methyl-3-(((((S)-5-oxopyrrolidin-2-yl)methyl)amino)methyl)-1H-indol-6-yl)-[4,4′-bipyridin]-2-yl)-2-methoxybenzyl)amino)methyl)pyrrolidin-2-one] had an IC50 of 0.6 nM. In addition, it took 165 nM to reach a half-maximal effect on human PD-L1 (EC50).
On the same counts, the results for `COc1nc(-c2cccc(-c3ccnc(-c4ccc5c(CNC[C@@H]6CCC(=O)N6)nn(C)c5c4)c3Cl)c2Cl)ccc1CNC[C@@H]1CCC(=O)N1` [Compound 183, (S)-5-((((6-(2-chloro-3-(3-chloro-2-(1-methyl-3-(((((S)-5-oxopyrrolidin-2-yl)methyl)amino)methyl)-1H-indazol-6-yl)pyridine-4-yl)phenyl)-2-methoxypyridin-3-yl)methyl)amino)methyl)pyridine1335ne-2-one] are 2.95 nM and 44.9 nM.
The compound `COc1cc(-c2nccc(-c3cccc(-c4ccc5c(CNC6CN(C(C)=O)C6)cn(C)c5n4)c3Cl)c2Cl)ccc1CNC[C@@H]1CCC(=O)N1` [Compound 95, (S)-5-(((4-(4-(3-(3-(((1-acetylazetidin-3-yl)amino)methyl)-1-methyl-1H-pyrrolo[2,3-b]pyridin-6-yl)-2-chlorophenyl)-3-chloropyridin-2-yl)-2-methoxybenzyl)amino)methyl)pyrrolidin-2-one] showed an IC50 in assay [1] of 0.6 nM. The EC50 on human PD-L1 was determined as 104 nM.
As for `COc1cc(-c2nccc(-c3cccc(-c4ccc(CNC5CCOCC5)c(OC)n4)c3Cl)c2Cl)cnc1CNC1CCOCC1` [Compound 431, N-((6-(2-Chloro-3-(3-chloro-5′-methoxy-6′-(((tetrahydro-2H-pyran-4-yl)amino)methyl)-[2,3′-bipyridin]-4-yl)phenyl)-2-methoxypyridin-3-yl)methyl)tetrahydro-2H-pyran-4-amine], half-maximal inhibition in assay [1] (IC50) was put at 2.03 nM. Besides, the EC50 at human PD-L1 was determined as 106 nM.
As to `COc1cc(-c2nccc(-c3cccc(-c4ccc(CNC5CCN(C(C)=O)CC5)c(OC)n4)c3Cl)c2Cl)ccc1CN1CC2(COC2)C1` [Example 380, 1-(4-(((6-(3-(2-(4-((2-Oxa-6-azaspiro[3.3]heptan-6-yl)methyl)-3-methoxyphenyl)-3-chloropyridin-4-yl)-2-chlorophenyl)-2-methoxypyridin-3-yl)methyl)amino)piperidin-1-yl)ethan-1-one], in assay [1], the midpoint of inhibition, the IC50, lay at 1.43 nM. This compound also displayed an EC50 on human PD-L1 of 20.5 nM.
On the same counts, the results for `COc1nc(-c2cccc(-c3ccnc(-c4cc5c(=O)n(C)c(CN[C@H]6C[C@](C)(O)C6)nn5c4)c3Cl)c2Cl)cc(Cl)c1CNC[C@@H]1CCC(=O)N1` [Compound 87, 6-(3-chloro-4-(2-chloro-3-(4-chloro-6-methoxy-5-(((((S)-5-oxopyrrolidin-2-yl)methyl)amino)methyl)pyridin-2-yl)phenyl)pyridin-2-yl)-2-((((1r,3r)-3-hydroxy-3-methylcyclobutyl)amino)methyl)-3-methylpyrrolo[2,1-f][1,2,4]triazin-4(3H)-one] are 3 nM and 312 nM.
The matching figures for `COc1cc(-c2nccc(-c3cccc(-c4ccc(CN5CCC6(CC5)CC(=O)N6)c(OC)n4)c3Cl)c2Cl)ccc1CN1CCC2(CC1)CC(=O)N2` [Example 353, 7-((6-(2-Chloro-3-(3-chloro-2-(3-methoxy-4-((2-oxo-1,7-diazaspiro[3.5]nonan-7-yl)methyl)phenyl)pyridin-4-yl)phenyl)-2-methoxypyridin-3-yl)methyl)-1,7-diazaspiro[3.5]nonan-2-one]: 0.16 nM and at least 10000 nM.
In assay [1], `COc1cc(-c2nccc(-c3cccc(-c4ccc(CNC[C@@H]5CCC(=O)N5)c(OC)n4)c3Cl)c2Cl)cc(F)c1CN1CC2(CNC(=O)C2)C1` [Compound 145, (S)-2-(4-(3-chloro-4-(2-chloro-3-(6-methoxy-5-((((5-oxopyrrolidin-2-yl)methyl)amino)methyl)pyridin-2-yl)phenyl)pyridin-2-yl)-2-fluoro-6-methoxybenzyl)-2,6-diazaspiro[3.4]octan-7-one] displayed an IC50 of 2.02 nM. The same compound yielded an EC50 on human PD-L1 of 17.7 nM.
On the same counts, the results for `COc1cc(-c2nccc(-c3cccc(-c4ccc(CN5CC6(CCC(=O)N6)C5)c(OC)n4)c3Cl)c2Cl)ccc1CN1CC2(CCC(=O)N2)C1` [Example 398, 2-((6-(2-Chloro-3-(3-chloro-2-(3-methoxy-4-((6-oxo-2,5-diazaspiro[3.4]octan-2-yl)methyl)phenyl)pyridin-4-yl)phenyl)-2-methoxypyridin-3-yl)methyl)-2,5-diazaspiro[3.4]octan-6-one] are 0.278 nM and 8.54 nM.
On the same counts, the results for `COc1nc(-c2cccc(-c3ccnc(-c4cc(OC)c5nc(CNCC(C)(C)O)nn5c4)c3Cl)c2Cl)ccc1CNC1CCN(C(C)=O)CC1` [Example 714, 1-(4-(((6-(2-chloro-3-(3-chloro-2-(2-(((2-hydroxy-2-methylpropyl)amino)methyl)-8-methoxy-[1,2,4]triazolo[1,5-a]pyridin-6-yl)pyridin-4-yl)phenyl)-2-methoxypyridin-3-yl)methyl)amino)piperidin-1-yl)ethan-1-one] are 0.54 nM and 249 nM.
For `CNCc1ccc(-c2cccc(-c3ccnc(-c4cc(CN5CC(CC(=O)O)C5)cc(OC)c4)c3Cl)c2Cl)nc1OC` [Compound 172, 2-(1-(3-(3-chloro-4-(2-chloro-3-(6-methoxy-5-((methylamino)methyl)pyridine-2-yl)phenyl)pyridine-2-yl)-5-methoxybenzyl)pyridine1333-3-yl)acetic acid], in assay [1], the IC50 was determined as 3.32 nM. At human PD-L1, this compound displayed an EC50 of at least 10000 nM.
In the case of `COc1nc(-c2cccc(-c3nccc(-c4ccc(CN5CC6(CCN(C(C)=O)C6)C5)c(OC)n4)c3Cl)c2Cl)ccc1CN1CC2(CCN(C(C)=O)C2)C1` [Example 760, 1-(2-((6-(3-(5-((6-Acetyl-2,6-diazaspiro[3.4]octan-2-yl)methyl)-3′-chloro-6-methoxy-[2,4′-bipyridin]-2′-yl)-2-chlorophenyl)-2-methoxypyridin-3-yl)methyl)-2,6-diazaspiro[3.4]octan-6-yl)ethan-1-one], the IC50 in assay [1] was 0.32 nM. At human PD-L1, the midpoint of the response, the EC50, lay at 19.2 nM.
On the same counts, the results for `COc1cc(-c2cncc(-c3cccc(-c4ccc(CNC5CCN(C(C)=O)CC5)c(OC)n4)c3Cl)c2Cl)ccc1CNC1CCN(C(C)=O)CC1` [Compound 641, 1-(4-(((6-(3-(5-(4-(((1-Acetylpiperidin-4-yl)amino)methyl)-3-methoxyphenyl)-4-chloropyridin-3-yl)-2-chlorophenyl)-2-methoxypyridin-3-yl)methyl)amino)piperidin-1-yl)ethan-1-one] are 0.09 nM and 107 nM.
On the same counts, the results for `COc1nc(-c2cccc(-c3ccnc(-c4ccc(CNC5CCOCC5)c(OC(F)F)c4)c3Cl)c2Cl)ccc1CN1CC2(C1)CN(C(C)=O)C2` [Example 689, 1-(6-((6-(2-Chloro-3-(3-chloro-2-(3-(difluoromethoxy)-4-(((tetrahydro-2H-pyran-4-yl)amino)methyl)phenyl)pyridin-4-yl)phenyl)-2-methoxypyridin-3-yl)methyl)-2,6-diazaspiro[3.3]heptan-2-yl)ethan-1-one] are 3.33 nM and 37.4 nM.
Compound `CNCc1cc(OC)cc(-c2nccc(-c3cccc(-c4ccc(CNC)c(OC)n4)c3Cl)c2Cl)c1` [Compound 155, 1-(6-(2-chloro-3-(3-chloro-2-(3-methoxy-5-((methylamino)methyl)phenyl)pyridin-4-yl)phenyl)-2-methoxypyridin-3-yl)-N-methylmethanamine] displayed an IC50 in assay [1] of 6.82 nM. At human PD-L1, this compound gave an EC50 of at least 10000 nM.
In turn, `COc1cc(-c2nccc(-c3cccc(-c4ccc(CNCCNC(C)=O)c(OC)n4)c3Cl)c2Cl)ccc1CNCCNC(C)=O` came in with an IC50 in assay [1] of 1.39 nM. In addition, the EC50 at human PD-L1 turned out to be 70.2 nM.
The matching figures for `COc1nc(-c2cccc(-c3ccnc(-c4ccc5c(c4)CNC5)c3Cl)c2Cl)ccc1CN(C)C1CCN(C(C)=O)CC1` [Compound 163, 1-(4-(((6-(2-chloro-3-(3-chloro-2-(isoindolin-5-yl)pyridine-4-yl)phenyl)-2-methoxypyridin-3-yl)methyl)(methyl)amino)piperidin-1-yl)ethan-1-one]: 3.29 nM and at least 10000 nM.
The matching figures for `COc1cc(-c2nccc(-c3cccc(-c4ccc(CNC5CCN(C(C)=O)CC5)c(OC)n4)c3Cl)c2Cl)ccc1CNC1CC(C)(C)C1` [Example 381, 1-(4-(((6-(2-Chloro-3-(3-chloro-2-(4-(((3,3-dimethylcyclobutyl)amino)methyl)-3-methoxyphenyl)pyridin-4-yl)phenyl)-2-methoxypyridin-3-yl)methyl)amino)piperidin-1-yl)ethan-1-one]: 0.184 nM and 53.3 nM.
`COc1cc(-c2nccc(-c3cccc(-c4ccc(CNC5CCN(C(C)=O)CC5)c(OC)n4)c3Cl)c2Cl)ccc1CN[C@H](CO)CC(=O)O` [Example 342, (S)-3-((4-(4-(3-(5-(((1-Acetylpiperidin-4-yl)amino)methyl)-6-methoxypyridin-2-yl)-2-chlorophenyl)-3-chloropyridin-2-yl)-2-methoxybenzyl)amino)-4-hydroxybutanoic acid] had an IC50 in assay [1] of 0.08 nM. This compound had an EC50 on human PD-L1 of 339 nM.
The matching figures for `COc1cc(-c2nccc(-c3cccc(-c4ccc(CNC5CCOCC5)c(OC)n4)c3F)c2F)ccc1CNC1CCOCC1` [Example 452, N-((6-(2-Fluoro-3-(3-fluoro-2-(3-methoxy-4-(((tetrahydro-2H-pyran-4-yl)amino)methyl)phenyl)pyridin-4-yl)phenyl)-2-methoxypyridin-3-yl)methyl)tetrahydro-2H-pyran-4-amine]: 22.6 nM and at least 10000 nM.

The IC50 is the concentration that gives 50% inhibition. Read a low IC50 as greater potency in that assay. One may read the EC50 as the concentration needed to bring the measured effect to its halfway point. A higher EC50 goes with a need for much substance.
